# Laboratory results as given in ChEMBL document CHEMBL1155237, “Selective inhibitors of the mutant B-Raf pathway: discovery of a potent and orally bioavailable aminoisoquinoline” (J Med Chem, 2009).
# Columns and labels:
# [1] = target: ALK tyrosine kinase receptor (Homo sapiens) (UniProt Q9UM73); test: Inhibition of ALK assessed as enzyme activity at 1 uM relative to untreated control; parameters: scale not given: the % may be the effect or the level left
# [2] = target: Serine/threonine-protein kinase Nek9 (Homo sapiens) (UniProt Q8TD19); test: Inhibition of NEK9 assessed as enzyme activity at 1 uM relative to untreated control; parameters: scale not given: the % may be the effect or the level left
# Sequence of Serine/threonine-protein kinase Nek9 (Homo sapiens) (Q8TD19 whole entry): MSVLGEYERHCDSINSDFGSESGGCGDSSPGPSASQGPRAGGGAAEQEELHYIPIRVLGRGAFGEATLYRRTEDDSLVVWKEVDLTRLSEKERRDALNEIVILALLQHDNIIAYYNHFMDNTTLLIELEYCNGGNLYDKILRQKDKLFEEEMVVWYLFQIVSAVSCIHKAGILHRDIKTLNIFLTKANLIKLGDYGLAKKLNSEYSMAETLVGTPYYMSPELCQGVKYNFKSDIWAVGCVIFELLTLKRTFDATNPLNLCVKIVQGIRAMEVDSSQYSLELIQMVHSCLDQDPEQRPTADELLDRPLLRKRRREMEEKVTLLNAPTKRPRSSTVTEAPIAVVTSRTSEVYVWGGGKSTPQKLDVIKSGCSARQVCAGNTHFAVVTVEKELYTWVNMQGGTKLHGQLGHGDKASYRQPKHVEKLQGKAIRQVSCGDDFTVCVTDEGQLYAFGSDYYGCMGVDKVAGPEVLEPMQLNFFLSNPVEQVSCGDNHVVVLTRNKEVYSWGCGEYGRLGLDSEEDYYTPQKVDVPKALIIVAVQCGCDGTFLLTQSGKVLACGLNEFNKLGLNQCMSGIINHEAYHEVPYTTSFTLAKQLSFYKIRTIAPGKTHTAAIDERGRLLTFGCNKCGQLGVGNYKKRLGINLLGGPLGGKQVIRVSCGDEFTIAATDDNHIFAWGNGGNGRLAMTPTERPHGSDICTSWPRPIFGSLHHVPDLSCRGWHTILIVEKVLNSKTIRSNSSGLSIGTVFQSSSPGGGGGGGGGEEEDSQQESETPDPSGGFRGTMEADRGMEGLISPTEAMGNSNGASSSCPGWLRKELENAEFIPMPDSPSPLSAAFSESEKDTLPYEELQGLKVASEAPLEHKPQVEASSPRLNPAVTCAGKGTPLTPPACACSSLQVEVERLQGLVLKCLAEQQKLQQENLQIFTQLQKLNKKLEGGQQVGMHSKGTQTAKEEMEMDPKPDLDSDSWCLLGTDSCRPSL
# [3] = target: Mitogen-activated protein kinase kinase kinase kinase 1 (Homo sapiens) (UniProt Q92918); test: Inhibition of MAP4K1 assessed as enzyme activity at 1 uM relative to untreated control; parameters: scale not given: the % may be the effect or the level left
# [4] = target: Ephrin type-B receptor 2 (Homo sapiens) (UniProt P29323); test: Inhibition of EPHB2 assessed as enzyme activity at 1 uM relative to untreated control; parameters: scale not given: the % may be the effect or the level left
# [5] = target: Dual specificity protein kinase TTK (Homo sapiens) (UniProt P33981); test: Inhibition of TTK assessed as enzyme activity at 1 uM relative to untreated control; parameters: scale not given: the % may be the effect or the level left
# Sequence of Dual specificity protein kinase TTK (Homo sapiens) (P33981 whole entry): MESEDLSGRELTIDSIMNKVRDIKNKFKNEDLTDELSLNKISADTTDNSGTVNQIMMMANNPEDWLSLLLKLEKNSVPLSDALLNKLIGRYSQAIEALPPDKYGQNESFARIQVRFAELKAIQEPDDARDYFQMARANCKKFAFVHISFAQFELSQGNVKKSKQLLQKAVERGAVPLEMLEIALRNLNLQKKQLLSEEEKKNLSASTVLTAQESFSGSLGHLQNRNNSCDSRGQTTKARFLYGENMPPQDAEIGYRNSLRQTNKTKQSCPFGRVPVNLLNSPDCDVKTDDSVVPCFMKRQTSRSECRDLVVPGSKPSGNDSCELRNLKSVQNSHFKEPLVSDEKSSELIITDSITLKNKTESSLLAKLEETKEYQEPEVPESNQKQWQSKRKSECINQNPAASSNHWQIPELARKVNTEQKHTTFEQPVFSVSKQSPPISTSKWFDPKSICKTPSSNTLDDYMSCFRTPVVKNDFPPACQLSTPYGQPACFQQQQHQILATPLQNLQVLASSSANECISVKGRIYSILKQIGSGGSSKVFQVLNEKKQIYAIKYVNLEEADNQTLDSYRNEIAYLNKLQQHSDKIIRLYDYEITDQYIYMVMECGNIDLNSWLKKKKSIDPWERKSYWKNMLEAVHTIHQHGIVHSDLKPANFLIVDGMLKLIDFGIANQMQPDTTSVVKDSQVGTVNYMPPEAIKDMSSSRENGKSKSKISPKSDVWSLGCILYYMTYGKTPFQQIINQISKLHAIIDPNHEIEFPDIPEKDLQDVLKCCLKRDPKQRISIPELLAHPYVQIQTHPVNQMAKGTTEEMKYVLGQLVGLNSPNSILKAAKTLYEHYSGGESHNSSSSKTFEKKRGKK
# [6] = target: Serine/threonine-protein kinase Nek7 (Homo sapiens) (UniProt Q8TDX7); test: Inhibition of NEK7 assessed as enzyme activity at 1 uM relative to untreated control; parameters: scale not given: the % may be the effect or the level left
# [7] = target: Tyrosine-protein kinase receptor TYRO3 (Homo sapiens) (UniProt Q06418); test: Inhibition of TYRO3 assessed as enzyme activity at 1 uM relative to untreated control; parameters: scale not given: the % may be the effect or the level left
# [8] = target: LIM domain kinase 2 (Homo sapiens) (UniProt P53671); test: Inhibition of LIMK2 assessed as enzyme activity at 1 uM relative to untreated control; parameters: scale not given: the % may be the effect or the level left
# Sequence of LIM domain kinase 2 (Homo sapiens) (P53671 whole entry, looked up, the tested form may be a part): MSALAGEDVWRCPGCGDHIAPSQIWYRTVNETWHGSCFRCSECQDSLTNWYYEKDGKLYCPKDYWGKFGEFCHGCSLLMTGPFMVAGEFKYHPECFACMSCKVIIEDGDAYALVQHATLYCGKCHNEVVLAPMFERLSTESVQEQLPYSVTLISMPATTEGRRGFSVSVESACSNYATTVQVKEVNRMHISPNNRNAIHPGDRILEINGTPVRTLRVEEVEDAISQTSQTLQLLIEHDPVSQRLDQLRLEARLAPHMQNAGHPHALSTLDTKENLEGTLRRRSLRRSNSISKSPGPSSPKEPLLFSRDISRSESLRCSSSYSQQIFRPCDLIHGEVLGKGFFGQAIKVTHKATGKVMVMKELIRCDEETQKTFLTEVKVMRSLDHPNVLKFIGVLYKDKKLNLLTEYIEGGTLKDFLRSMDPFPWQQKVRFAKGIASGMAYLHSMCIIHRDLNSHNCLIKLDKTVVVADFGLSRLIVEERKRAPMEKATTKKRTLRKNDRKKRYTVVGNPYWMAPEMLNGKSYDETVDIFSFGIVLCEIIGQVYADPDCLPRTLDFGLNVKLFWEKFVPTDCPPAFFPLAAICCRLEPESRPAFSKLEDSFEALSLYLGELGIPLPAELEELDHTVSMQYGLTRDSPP
# [9] = target: Serine/threonine-protein kinase MARK1 (Homo sapiens) (UniProt Q9P0L2); test: Inhibition of MARK1 assessed as enzyme activity at 1 uM relative to untreated control; parameters: scale not given: the % may be the effect or the level left
# [10] = target: Myotonin-protein kinase (Homo sapiens) (UniProt Q09013); test: Inhibition of DMPK assessed as enzyme activity at 1 uM relative to untreated control; parameters: scale not given: the % may be the effect or the level left
# [11] = target: Mitogen-activated protein kinase 1 (Homo sapiens) (UniProt P28482); test: Inhibition of ERK2 assessed as enzyme activity at 1 uM relative to untreated control; parameters: scale not given: the % may be the effect or the level left
# [12] = target: Mitogen-activated protein kinase 10 (Homo sapiens) (UniProt P53779); test: Inhibition of JNK3 assessed as enzyme activity at 1 uM relative to untreated control; parameters: scale not given: the % may be the effect or the level left
# [13] = target: Serine/threonine-protein kinase Nek6 (Homo sapiens) (UniProt Q9HC98); test: Inhibition of NEK6 assessed as enzyme activity at 1 uM relative to untreated control; parameters: scale not given: the % may be the effect or the level left
# [14] = target: Receptor tyrosine-protein kinase erbB-2 (Homo sapiens) (UniProt P04626); test: Inhibition of ERBB2 assessed as enzyme activity at 1 uM relative to untreated control; parameters: scale not given: the % may be the effect or the level left
# [15] = target: Tyrosine-protein kinase receptor UFO (Homo sapiens) (UniProt P30530); test: Inhibition of AXL assessed as enzyme activity at 1 uM relative to untreated control; parameters: scale not given: the % may be the effect or the level left
# [16] = target: Myosin light chain kinase, smooth muscle (Homo sapiens) (UniProt Q15746); test: Inhibition of MLCK assessed as enzyme activity at 1 uM relative to untreated control; parameters: scale not given: the % may be the effect or the level left
# [17] = target: MAP kinase-activated protein kinase 2 (Homo sapiens) (UniProt P49137); test: Inhibition of MAPKAPK2 assessed as enzyme activity at 1 uM relative to untreated control; parameters: scale not given: the % may be the effect or the level left
# [18] = target: Calcium/calmodulin-dependent protein kinase type II subunit beta (Homo sapiens) (UniProt Q13554); test: Inhibition of CAMK2B assessed as enzyme activity at 1 uM relative to untreated control; parameters: scale not given: the % may be the effect or the level left
# [19] = target: Tyrosine-protein kinase FRK (Homo sapiens) (UniProt P42685); test: Inhibition of FRK assessed as enzyme activity at 1 uM relative to untreated control; parameters: scale not given: the % may be the effect or the level left
# [20] = target: Serine/threonine-protein kinase N2 (Homo sapiens) (UniProt Q16513); test: Inhibition of PKN2 assessed as enzyme activity at 1 uM relative to untreated control; parameters: scale not given: the % may be the effect or the level left
# [21] = AUC (0 to 24 hrs) in human A375 SQ2 cells xenografted po dosed CD1 mouse administered once daily for 14 days; assay type: ADME, organism-based, A-375; parameters: time < 24 hr, route oral; conditions: in vivo
# [22] = target: Serine/threonine-protein kinase pim-1 (Homo sapiens) (UniProt P11309); test: Inhibition of PIM1 assessed as enzyme activity at 1 uM relative to untreated control; parameters: scale not given: the % may be the effect or the level left
# Sequence of Serine/threonine-protein kinase pim-1 (Homo sapiens) (P11309 whole entry, looked up): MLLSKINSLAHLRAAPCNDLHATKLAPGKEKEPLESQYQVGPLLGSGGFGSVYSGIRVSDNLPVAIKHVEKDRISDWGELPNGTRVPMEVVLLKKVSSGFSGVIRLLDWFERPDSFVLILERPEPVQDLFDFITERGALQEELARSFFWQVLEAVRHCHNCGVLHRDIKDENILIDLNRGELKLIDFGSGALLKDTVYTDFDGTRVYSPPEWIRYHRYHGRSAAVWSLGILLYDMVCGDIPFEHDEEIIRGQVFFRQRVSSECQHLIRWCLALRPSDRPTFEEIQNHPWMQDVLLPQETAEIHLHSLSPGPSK
# [23] = target: MAP kinase-interacting serine/threonine-protein kinase 1 (Homo sapiens) (UniProt Q9BUB5); test: Inhibition of MKNK1 assessed as enzyme activity at 1 uM relative to untreated control; parameters: scale not given: the % may be the effect or the level left
# [24] = system: Tyrosine-protein kinase ABL1 (Homo sapiens), P00519 [Q252H]; test: Inhibition of ABL1 Q252H mutant assessed as enzyme activity at 1 uM relative to untreated control; parameters: scale not given: the % may be the effect or the level left
# [25] = target: Serine/threonine-protein kinase D1 (Homo sapiens) (UniProt Q15139); test: Inhibition of PRKD1 assessed as enzyme activity at 1 uM relative to untreated control; parameters: scale not given: the % may be the effect or the level left
# [26] = target: Ankyrin repeat and protein kinase domain-containing protein 1 (Homo sapiens) (UniProt Q8NFD2); test: Inhibition of ANKK1 assessed as enzyme activity at 1 uM relative to untreated control; parameters: scale not given: the % may be the effect or the level left
# [27] = target: Phosphatidylinositol 4,5-bisphosphate 3-kinase catalytic subunit alpha isoform (Homo sapiens) (UniProt P42336); test: Inhibition of PIK3CA assessed as enzyme activity at 1 uM relative to untreated control; parameters: scale not given: the % may be the effect or the level left
# Sequence of Phosphatidylinositol 4,5-bisphosphate 3-kinase catalytic subunit alpha isoform (Homo sapiens) (P42336 whole entry, canonical isoform): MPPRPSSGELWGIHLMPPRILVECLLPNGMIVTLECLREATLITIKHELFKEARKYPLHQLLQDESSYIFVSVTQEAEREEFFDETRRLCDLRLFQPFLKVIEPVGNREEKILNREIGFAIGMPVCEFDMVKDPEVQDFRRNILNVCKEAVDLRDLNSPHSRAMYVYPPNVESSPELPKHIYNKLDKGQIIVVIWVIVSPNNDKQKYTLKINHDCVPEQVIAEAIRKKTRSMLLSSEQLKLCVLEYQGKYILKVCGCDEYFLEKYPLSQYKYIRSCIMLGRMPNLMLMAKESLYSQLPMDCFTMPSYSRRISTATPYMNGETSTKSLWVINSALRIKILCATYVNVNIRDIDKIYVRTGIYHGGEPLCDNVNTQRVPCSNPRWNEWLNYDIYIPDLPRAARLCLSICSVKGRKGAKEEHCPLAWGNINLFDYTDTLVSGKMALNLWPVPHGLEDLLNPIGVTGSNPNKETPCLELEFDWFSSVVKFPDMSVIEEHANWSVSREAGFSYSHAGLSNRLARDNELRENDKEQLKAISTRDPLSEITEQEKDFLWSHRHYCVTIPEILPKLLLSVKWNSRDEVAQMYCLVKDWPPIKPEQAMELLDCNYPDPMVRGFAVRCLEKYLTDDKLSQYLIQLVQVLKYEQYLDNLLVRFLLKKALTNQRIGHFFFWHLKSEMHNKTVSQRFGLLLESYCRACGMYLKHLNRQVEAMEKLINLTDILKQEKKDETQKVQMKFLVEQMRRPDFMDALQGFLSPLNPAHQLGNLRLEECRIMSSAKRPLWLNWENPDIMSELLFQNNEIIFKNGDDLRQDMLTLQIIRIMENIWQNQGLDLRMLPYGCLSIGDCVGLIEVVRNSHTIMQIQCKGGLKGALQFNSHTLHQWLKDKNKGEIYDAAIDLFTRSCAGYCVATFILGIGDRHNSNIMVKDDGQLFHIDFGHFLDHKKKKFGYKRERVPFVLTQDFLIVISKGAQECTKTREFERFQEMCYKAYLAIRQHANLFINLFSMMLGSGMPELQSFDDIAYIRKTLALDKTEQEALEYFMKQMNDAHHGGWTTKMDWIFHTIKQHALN
# [28] = target: Myosin-IIIb (Homo sapiens) (UniProt Q8WXR4); test: Inhibition of MYO3B assessed as enzyme activity at 1 uM relative to untreated control; parameters: scale not given: the % may be the effect or the level left
# [29] = target: Myosin light chain kinase family member 4 (Homo sapiens) (UniProt Q86YV6); test: Inhibition of SgK085 assessed as enzyme activity at 1 uM relative to untreated control; parameters: scale not given: the % may be the effect or the level left
# Sequence of Myosin light chain kinase family member 4 (Homo sapiens) (Q86YV6 whole entry): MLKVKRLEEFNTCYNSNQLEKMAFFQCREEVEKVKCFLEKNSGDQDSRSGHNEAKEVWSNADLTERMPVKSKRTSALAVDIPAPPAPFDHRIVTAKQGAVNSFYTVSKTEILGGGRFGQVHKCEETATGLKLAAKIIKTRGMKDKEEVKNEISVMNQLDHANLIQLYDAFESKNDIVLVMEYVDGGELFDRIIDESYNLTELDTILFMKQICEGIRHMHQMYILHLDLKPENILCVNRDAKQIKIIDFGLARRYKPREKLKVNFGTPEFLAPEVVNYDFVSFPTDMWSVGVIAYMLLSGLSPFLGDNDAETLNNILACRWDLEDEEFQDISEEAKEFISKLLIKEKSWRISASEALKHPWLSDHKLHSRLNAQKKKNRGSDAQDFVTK
# [30] = target: Cyclin-dependent kinase 18 (Homo sapiens) (UniProt Q07002); test: Inhibition of PCTK3 assessed as enzyme activity at 1 uM relative to untreated control; parameters: scale not given: the % may be the effect or the level left
# [31] = target: Tyrosine-protein kinase Lyn (Homo sapiens) (UniProt P07948); test: Inhibition of LYN assessed as enzyme activity at 1 uM relative to untreated control; parameters: scale not given: the % may be the effect or the level left
# [32] = target: Inhibitor of nuclear factor kappa-B kinase subunit beta (Homo sapiens) (UniProt O14920); test: Inhibition of IKK-beta assessed as enzyme activity at 1 uM relative to untreated control; parameters: scale not given: the % may be the effect or the level left
# [33] = target: Casein kinase I isoform epsilon (Homo sapiens) (UniProt P49674); test: Inhibition of CSNK1E assessed as enzyme activity at 1 uM relative to untreated control; parameters: scale not given: the % may be the effect or the level left
# Angiopoietin-1 receptor = Angiopoietin-1 receptor (Homo sapiens, UniProt Q02763); test: Inhibition of Tie2
# [34] = target: MAP/microtubule affinity-regulating kinase 3 (Homo sapiens) (UniProt P27448); test: Inhibition of MARK3 assessed as enzyme activity at 1 uM relative to untreated control; parameters: scale not given: the % may be the effect or the level left
# Sequence of MAP/microtubule affinity-regulating kinase 3 (Homo sapiens) (P27448 whole entry, looked up): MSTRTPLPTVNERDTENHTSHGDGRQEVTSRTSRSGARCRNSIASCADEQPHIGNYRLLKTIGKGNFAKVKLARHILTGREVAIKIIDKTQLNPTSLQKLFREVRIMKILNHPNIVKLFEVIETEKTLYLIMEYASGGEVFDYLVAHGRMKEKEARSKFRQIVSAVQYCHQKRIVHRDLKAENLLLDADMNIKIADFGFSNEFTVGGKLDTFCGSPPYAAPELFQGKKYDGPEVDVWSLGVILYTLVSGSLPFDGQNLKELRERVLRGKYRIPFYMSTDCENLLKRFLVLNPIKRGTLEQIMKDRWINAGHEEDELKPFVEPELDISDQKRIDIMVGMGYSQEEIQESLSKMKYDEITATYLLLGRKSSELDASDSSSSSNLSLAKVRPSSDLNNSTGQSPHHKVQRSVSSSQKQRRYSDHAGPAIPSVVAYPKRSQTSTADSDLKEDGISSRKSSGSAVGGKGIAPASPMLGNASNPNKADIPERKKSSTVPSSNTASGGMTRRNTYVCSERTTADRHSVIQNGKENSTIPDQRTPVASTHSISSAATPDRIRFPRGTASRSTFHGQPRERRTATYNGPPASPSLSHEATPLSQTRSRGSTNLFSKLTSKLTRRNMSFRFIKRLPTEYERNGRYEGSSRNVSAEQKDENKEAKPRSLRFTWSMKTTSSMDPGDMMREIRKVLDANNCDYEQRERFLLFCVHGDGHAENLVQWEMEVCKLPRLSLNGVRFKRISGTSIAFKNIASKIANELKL
# [35] = target: Calcium/calmodulin-dependent protein kinase type II subunit alpha (Homo sapiens) (UniProt Q9UQM7); test: Inhibition of CAMK2A assessed as enzyme activity at 1 uM relative to untreated control; parameters: scale not given: the % may be the effect or the level left
# [36] = target: Mitogen-activated protein kinase 14 (Homo sapiens, UniProt Q16539); test: Inhibition of p38alpha
# [37] = target: Cyclin-dependent kinase 2 (Homo sapiens) (UniProt P24941); test: Inhibition of CDK2 assessed as enzyme activity at 1 uM relative to untreated control; parameters: scale not given: the % may be the effect or the level left
smiles,measurement,setting,value
Cc1ccc2c(Nc3ccc(Cl)cc3)nccc2c1Nc1ncccc1-c1ncnc2[nH]cnc12.Cl.Cl.Cl,Activity,[1],96%
same,Activity,[2],89%
same,Activity,[3],100%
same,Activity,[4],6.1%
same,Activity,[5],100%
same,Activity,[6],88%
same,Activity,[7],84%
same,Activity,[8],98%
same,Activity,[9],97%
same,Activity,[10],100%
same,Activity,[11],100%
same,Activity,[12],86%
same,Activity,[13],100%
same,Activity,[14],97%
same,Activity,[15],95%
same,Activity,[16],99%
same,Activity,[17],100%
same,Activity,[18],100%
same,Activity,[19],17%
same,Activity,[20],86%
same,AUC at 24 h,[21],2730 ng·h/mL
same,Activity,[22],93%
same,Activity,[23],100%
same,Activity,[24],71%
same,Activity,[25],100%
same,Activity,[26],100%
same,Activity,[27],100%
same,Activity,[28],68%
same,Activity,[29],100%
same,Activity,[30],95%
same,Activity,[31],18%
same,Activity,[32],100%
same,Activity,[33],99%
same,IC50,Angiopoietin-1 receptor,120 nM
same,Activity,[34],100%
same,Activity,[35],100%
same,IC50,[36],> 1600 nM
same,Activity,[37],100%
